Test results as given in patent US11596637B2, “CHK1 (SRA737)/PARPi combination methods of inhibiting tumor growth” (SIERRA ONCOLOGY, INC., priority 2017, dated 2023).
Where two headings read alike, the source gives them in different places.

Columns and labels:
10 cancer cell lines = assay type: cell-based; conditions: for single agent activity across the cancer cell lines tested (in words): 10 cancer cell lines
Experimental: (§1) Briefly, cell lines were preserved in liquid nitrogen and thawed and expanded in growth media containing full serum. As the cells reached expected doubling times, the screening assay began. Cells were seeded in growth media and equilibrated via centrifugation. The cell cultures were placed in incubators and then underwent treatment. Assay plates were collected and ATP levels were measured. Assay plates were incubated with combinations for seventy two (72) or ninety six (96) hours in simultaneous and sequential dosing schedules.
(§2) Cell lines that have been preserved in liquid nitrogen were thawed and expanded in growth media containing full serum. Once cells have reached expected doubling times, screening began. Cells were seeded in growth media in black 384-well tissue culture treated plates at cell densities as listed in Appendix 1 incorporated into and part of this specification. Cells were equilibrated in assay plates via centrifugation and placed in incubators (attached to the Dosing Modules) at 37° C. for 24 hours before treatment. […] These Tzero (T0) plates were read using ultra-sensitive luminescence on Envision plate readers. Assay plates were incubated with compounds for 72 and were then analyzed using ATPLite™.
(§3) Chalice Analyzer allows two ways of visualizing single agent dose response curves. The Logistics Curve fit modeling in Analyzer uses sigmoidal modeling of the data points. In most contexts, the Logistics Curve fit will accurately model the dose response curve. All subsequent analyses for the single agent and combination activities of SRA737 contained within the Examples use the Linear Interpolation Curve fit.
(§4) A GI 100% represents complete growth inhibition (cytostasis) and in this case cells treated with compound for 72 or 96 hours would have the same endpoint reading as T0 control cells. A GI of 200% represents complete death (cytotoxicity) of all cells in the culture well and in this case the T reading at 72 or 96 hours will be lower than the T0 control (values near or at zero). These GI calculations were used in all single agent and combination data analysis for the combination screen.
(§5) Single agent activity of SRA737 and four PARP inhibitors in each of 10 cancer cell lines comprising breast, ovarian, prostate sarcoma and head and neck cancer cells was assessed (FIGS. 3-9). The 10 cancer cell lines examined were: A673, B-474, CAL-27, DU-145, MDA-MB-231, OVCAR-3, OVCAR-5, PC-3, HT-29 and SK-BR-3. The cell lines were screened with a 72 hour treatment schedule. Cell viability was measured by detection of ATP metabolism using an ATP monitoring luminescence detection assay (ATPLite™) GI50, IC50, Maximum Response Observed (Max Response) were calculated (FIG. 5).

OVCAR-3 cells = assay: Single agent assessment, ATPLite cell viability, 72 hour treatment; assay type: cell-based, human
Experimental: as §1, §2, §3, §4, §5

OVCAR-5 cells = assay: as above; assay type: cell-based, human
Experimental: as §1, §2, §3, §4, §5

MDA-MB-231 cells = assay: as above; assay type: cell-based, human
Experimental: as §1, §2, §3, §4, §5

A673 cells = assay: as above; assay type: cell-based, human
Experimental: as §1, §2, §3, §4, §5

SK-BR-3 cells = assay: as above; assay type: cell-based, human
Experimental: as §1, §2, §3, §4, §5

CAL-27 cells = assay: as above; assay type: cell-based, human
Experimental: as §1, §2, §3, §4, §5

DU145 cells = assay: as above; assay type: cell-based, human
Experimental: as §1, §2, §3, §4, §5

BT-474 cells = assay: as above; assay type: cell-based, human
Experimental: as §1, §2, §3, §4, §5

PC-3 cells = assay: as above; assay type: cell-based, human
Experimental: as §1, §2, §3, §4, §5

HT-29 cells = assay: as above; assay type: cell-based, human
Experimental: as §1, §2, §3, §4, §5

With `O=C(c1cc(Cc2n[nH]c(=O)c3ccccc23)ccc1F)N1CCN(C(=O)C2CC2)CC1` [Olaparib] as the compound, how does the “single agent activity across the cancer cell lines tested (in words)” value (10 cancer cell lines; 72 hour treatment) read?
The value was “activity in most of the cancer cell lines tested”.

How did the “single agent activity across the cancer cell lines tested (in words)” value (10 cancer cell lines; 72 hour treatment) turn out when `Cn1ncnc1[C@H]1c2n[nH]c(=O)c3cc(F)cc(c23)N[C@@H]1c1ccc(F)cc1` [BMN 673, Talazoparib] was run?
Its value is “activity in most of the cancer cell lines tested”.

`CNCc1ccc(-c2[nH]c3cc(F)cc4c3c2CCNC4=O)cc1` [Rucaparib] was tested. Which “single agent activity across the cancer cell lines tested (in words)” value (10 cancer cell lines; 72 hour treatment) did it give?
Its value is “activity in most of the cancer cell lines tested”.

Which results are given for `N#Cc1cnc(Nc2cc(NCC3CNCCO3)c(C(F)(F)F)cn2)cn1` (centres unmarked) [SRA737, 5-[[4-[[morpholin-2-yl]methylamino]-5-(trifluoromethyl)-2-pyridyl]amino]pyrazine-2-carbonitrile]?
sensitivity of the cell line to the single agent (OVCAR-3 cells): intermediate sensitivity; sensitivity of the cell line to the single agent (OVCAR-5 cells): highest sensitivity; sensitivity of the cell line to the single agent (MDA-MB-231 cells): least sensitivity; sensitivity of the cell line to the single agent (A673 cells): intermediate sensitivity; sensitivity of the cell line to the single agent (SK-BR-3 cells): highest sensitivity; sensitivity of the cell line to the single agent (CAL-27 cells): least sensitivity; sensitivity of the cell line to the single agent (DU145 cells): intermediate sensitivity; sensitivity of the cell line to the single agent (BT-474 cells): least sensitivity; sensitivity of the cell line to the single agent (PC-3 cells): least sensitivity; sensitivity of the cell line to the single agent (HT-29 cells): intermediate sensitivity; number of cancer cell lines in which single agent activity was demonstrated (10 cancer cell lines; of the 10 cancer cell lines, 72 hour treatment): 8; kind of single agent effect (cytotoxic / cytostatic) (10 cancer cell lines; the remaining six responsive cell lines): cytostatic; kind of single agent effect (cytotoxic / cytostatic) (10 cancer cell lines; the two most responsive cell lines): modestly cytotoxic

`NC(=O)c1cccc2cn(-c3ccc([C@@H]4CCCNC4)cc3)nc12` [Niraparib] was tested. Which “single agent activity across the cancer cell lines tested (in words)” value (10 cancer cell lines; 72 hour treatment) did it give?
The value was “activity in most of the cancer cell lines tested”.
